How the values were obtained:
[1] = cited from earlier work
[2] = Chloride quenching (Stern-Volmer) of SPQ-C3 in water; assay type: physicochemical
Protocol: Quenching by Chloride. Collisional quenching occurs, for example, when SPQ-C18 (also referred to as OD-MQB (N-Octadecyl-6-methoxyquinolinium bromide)) has a diffusion collision with a chloride ion. The intensities (I) and lifetimes (6) are analyzed using the Stern-Volmer equation,
where F0 and τ0 are the intensities and lifetimes in the absence of chloride, and K is the quenching constant and the inverse of the [Cl^−] needed for 50% quenching. For collisional quenching, the value of F0/F and τ0/τ are typically the same. In solution, in the absence of lenses, the value of K=kq τ0 can be used to calculate the biomolecular quenching constant kq and the quenching efficiency. In the lenses, the [Cl−] may not be the same as in the bulk solution, but kq in the lenses is estimated by assuming the same concentration of chloride around the SPQ moiety in the lenses and in bulk solutions.
This approach for SPQ-C18 in lenses is shown in both intensities and amplitude-weighted lifetimes (FIG. 35A and FIG. 35B). […] This behavior is different from SG-PL where the binding site can be saturated at high Na^+ concentrations. In contrast, quenching of OD-MQB, both intensity and lifetime, continue to decrease as the chloride concentration increased. The steady-state intensities and intensity decays can be used to calculate the bimolecular quenching constant kq. This value can be interpreted by comparison with quenching of a fluorophore in solution without any steric barriers. For this measurement the water-soluble fluorophore 1-propenyl-6-methoxyquinolinium bromide (SPQ-C3) was used. This is the same structure of SPQ-C18 but with a shorter, three carbon propenyl chain. The unquenched lifetime (τ0) of P-MQB was 26 ns, and the Stern-Volmer constant K was 140 M^−1. From these values, we calculated the kq of 5.4×10^9 M^−1 sec^−1 which is a typical value for efficient quenching.
Emission spectra and time-dependent decays were obtained (data not shown). Stern-Volmer plots were obtained in water and in a Stenfilcon A (Aspire™) contact lens by plotting the normalized intensities with respect to the added chloride concentrations.

[3] = cation-bound form (in parentheses)

SMILES | Lifetime (ns), cation-bound form [1, 3] [ns] | Q, cation-bound form [1, 3] | Lifetime (ns), free form ([1]; free form) [ns] | Q, free form ([1]; free form) | bimolecular quenching constant ([2]; in Water) [M⁻¹ s⁻¹] | Stern-Volmer constant K ([2]; in solution) [M⁻¹] | unquenched lifetime (τ0) ([2]; in solution) [ns] | bimolecular quenching constant kq ([2]; in solution, listed as P-MQB) [M⁻¹ s⁻¹]
COc1cc2cc(-c3ccc(C(=O)O)cc3C(=O)O)oc2cc1N1CCOCCOCCN(c2cc3oc(-c4ccc(C(=O)O)cc4C(=O)O)cc3cc2OC)CCOCCOCC1 [PBF ?] | 0.72 | 0.72 | 0.47 | 0.24 | – | – | – | –
CC=C[n+]1cccc2cc(OC)ccc21.[Br-] [SPQ-C3, 1-propenyl-6-methoxyquinolinium bromide] | – | – | – | – | 5.4e+09 | 140 | 26 | 5.4e+09
